{"source": "patent US10806717B2", "about": "“Methods and compositions for improving cognitive function” (The Johns Hopkins University, priority 2013, dated 2020)", "key": {"MAM-treated rats [1]": {"tested_on": "MAM-treated rats", "conditions": "rat, in vivo; cited from earlier work"}, "aged-impaired (AI) rats": {"tested_on": "aged-impaired (AI) rats", "assay": "Radial Arm Maze task with one-hour delay, levetiracetam and/or valproate", "type": "in vivo, rat", "conditions": "valproate on its own"}, "[2]": {"tested_on": "Memory-impaired aged rats", "conditions": "cited from earlier work"}, "[3]": {"tested_on": "Memory-impaired aged rats", "assay": "Radial arm maze task with 2-hr delay, acute brivaracetam or seletracetam", "type": "in vivo, rat", "conditions": "acute i.p. 0.0625-4 mg/kg, 30-40 min before test; repeated measures ANOVA: brivaracetam p=0.039, seletracetam p=0.009"}, "[4]": {"tested_on": "Memory-impaired aged rats", "assay": "Water maze probe test after chronic brivaracetam", "type": "in vivo, rat", "conditions": "brivaracetam 2 mg/kg/day by osmotic mini-pump", "description": "The radial arm maze experiments used acute administration of seletracetam (0-4 mg/kg), brivaracetam (0-4 mg/kg), or saline vehicle given by intraperitoneal injection (in a volume of 1 ml/kg) 30-40 min prior to test sessions. In the chronic treatment experiment, memory-impaired aged rats were implanted subcutaneously in the intrascapular region with osmotic mini-pumps (ALZET, Durect Corporation, Cupertino, Calif.) with brivaracetam (2 mg/kg/day) or saline vehicle starting two weeks prior to assessment in the water maze.\nRats were trained and tested in a novel water maze environment to assess the effect of drug treatment. The water maze used here was housed in a different building and was surrounded by curtains with a novel set of patterns relative to the maze used for initial assessment of cognitive status. The training protocol consisted of 6 trials per day for 2 days to locate a submerged escape platform. On each trial, a rat was released in the maze from one of four equally spaced starting positions around the perimeter of the pool. The starting position varied from trial to trial. […] The rat was then removed from the platform and placed in a holding cage for another 40 s before the next trial. Approximately 24 hr after the last training trial, a probe test in the absence of the escape platform was given to assess spatial memory."}, "MAM-treated rats [5]": {"tested_on": "MAM-treated rats", "conditions": "cited from earlier work"}}}
{"smiles": "NC1=N[C@H](O)[C@H]2[C@H]3O[C@]4(O)O[C@@H]([C@@H](O)[C@@]2(N1)[C@@H]4O)[C@]3(O)CO", "note": "[tetrodotoxin]", "values": [{"measurement": "augmented amphetamine-induced locomotor behavior", "setting": "MAM-treated rats [1]", "result": "normalized"}, {"measurement": "elevated DA neuron population activity", "setting": "MAM-treated rats [1]", "result": "completely reversed"}]}
{"smiles": "CCCC(CCC)C(=O)O", "note": "[valproate, 2-propylpentanoate]", "values": [{"measurement": "effective in reducing the number of errors", "setting": "aged-impaired (AI) rats; 25 mg/kg or 50 mg/kg subcutaneous", "result": "not"}, {"measurement": "effective in reducing the number of errors", "setting": "aged-impaired (AI) rats; 100 mg/kg subcutaneous", "result": "effective"}, {"measurement": "treatment of cognitive impairment", "setting": "[2]; 50 mg/kg/day, chronic subcutaneous administration", "result": "not effective"}, {"measurement": "performance in a memory test", "setting": "[2]; 100 mg/kg/day, chronic subcutaneous administration", "result": "significantly improved"}, {"measurement": "blood total valproate level", "setting": "[2]; rat, in vivo", "result": 10, "unit": "μg/ml plasma"}]}
{"smiles": "CC[C@@H](C(N)=O)N1C[C@H](C=C(F)F)CC1=O", "note": "[seletracetam]", "values": [{"measurement": "number of errors in the retention phase after 2-hr delay", "setting": "[3]", "result": "significant effect as a function of dose"}]}
{"smiles": "CCC[C@@H]1CC(=O)N([C@@H](CC)C(N)=O)C1", "note": "[brivaracetam]", "values": [{"measurement": "spatial bias for the target quadrant compared to the other quadrants", "setting": "[4]; 14 days, n=3/group, t(2)=10.000, p=0.010", "result": "significant spatial bias"}, {"measurement": "time in the target annulus compared to vehicle-treated rats", "setting": "[4]; t(4)=3.109, p=0.036", "result": "significantly more time"}, {"measurement": "time in the target quadrant compared to vehicle-treated rats", "setting": "[4]; t(4)=3.881, p=0.018", "result": "significantly more time"}, {"measurement": "number of errors in the retention phase after 2-hr delay", "setting": "[3]", "result": "significant effect as a function of dose"}]}
{"smiles": "C#Cc1ccc2c(c1)C(c1ccccc1F)=N[C@H](C)c1c(C(=O)OCC)ncn1-2", "note": "[SH-053-2′F—R—CH3]", "values": [{"measurement": "number of spontaneously active DA neurons in the ventral tegmental area (VTA)", "setting": "MAM-treated rats [5]; MAM rats, systemic or infused into ventral HPC, to levels of saline-treated rats", "result": "reduces"}, {"measurement": "increased locomotor response to amphetamine", "setting": "MAM-treated rats [5]; MAM-treated rats", "result": "reduced"}, {"measurement": "cortical-evoked responses of HPC neurons", "setting": "MAM-treated rats [5]; saline-treated and MAM-treated animals", "result": "diminished"}]}
